Measurements taken from patent publication US20130172345A1, “1-ACYL-4-(PHENOXY, BENZYLOXY, OR PHENYLAMINO)-1,2,3,4-TETRAHYDROQUINOLINE DERIVATIVES” (KOWA COMPANY, LTD., priority 2007, published 2013).
Structures can show the parent of a compound that is named as a salt.

tested on: K562 cells, human proerythroblast cells; assay: Hemoglobin production in K562 cells (fluorescence of the porphyrin ring); format: cell-based; conditions: 144 h, test compound 6 μM, 3+3 days, non-stimulated state = 100%, read-out: production amount of hemoglobin, % of control (6 μM)
Procedure: K562 cells (obtained from ATCC), which are human proerythroblast cells, were seeded at a density of 1×10^5 cells/1 mL on a 24-well plate by using complete medium (RPMI-1640 medium comprising 10% bovine fetal serum). After adding the test compound having 1000× concentration (1 μL), the cells were incubated for three days in a CO2 incubator (37° C., 5% CO2). After exchanging the medium, the cells were further incubated for three days. Then, the cells were collected and counted. After adjusting them to have 3×10^5 cells, the amount of hemoglobin produced in the cells was determined by measuring fluorescence of the porphyrin ring. Specifically, the cells which had been collected by centrifugation were suspended in 2 M oxalic acid solution (500 μL) and boiled for 30 minutes under heating. After cooling the cells, the fluorescence intensity was measured by Fluorescence micro plate reader (Spectra MAX GeminiEM, manufactured by Molecular Devices Corporation) ([…]). When hemoglobin amount in non-stimulated state, i.e., without addition of any compound, was 100%, the production amount of hemoglobin induced by each compound was calculated (% of control).

SMILES | activity at 6 µM [%]
CC(=O)N1c2ccc(N3CCN(C(=O)C(C)C)CC3)cc2C(Nc2ccc(Cl)cc2)CC1C (stereo not shown) [Compound 84, 1-acetyl-4-[(4-chlorophenyl)amino]-6-[(4-isopropylcarbonyl)piperazino]-2-methyl-1,2,3,4-tetrahydroquinoline] | 286
COc1cccc2c1N(C(C)=O)C(C)CC2Nc1ccccc1 (stereo not shown) [Compound 61, 1-acetyl-4-phenylamino-8-methoxy-2-methyl-1,2,3,4-tetrahydroquinoline] | 132
COc1ccc2c(c1)C(Nc1ccc(F)cc1)CC(C)N2C(C)=O (stereo not shown) [Compound 37, 1-acetyl-4-[(4-fluorophenyl)amino]-2-methyl-6-methoxy-1,2,3,4-tetrahydroquinoline] | 494
CC(=O)N1c2ccccc2C(Oc2ccc([N+](=O)[O-])cc2)CC1C (stereo not shown) [Compound 67, 1-acetyl-2-methyl-4-(4-nitrophenoxy)-1,2,3,4-tetrahydroquinoline] | 119
CCN(CC)C(=O)N1CCN(c2ccc3c(c2)C(Nc2ccc(Cl)cc2)CC(C)N3C(C)=O)CC1 (stereo not shown) [Compound 87, 1-acetyl-4-[(4-chlorophenyl)amino]-6-[4-(N,N-diethylaminocarbonyl)piperazino]-2-methyl-1,2,3,4-tetrahydroquinoline] | 262
COC(=O)c1cc(NC2CC(C)N(C(C)=O)c3ccccc32)ccc1O (stereo not shown) [Compound 108, 1-acetyl-4-[(4-hydroxy-3-methoxycarbonylphenyl)amino]-2-methyl-1,2,3,4-tetrahydroquinoline.hydrochloride] | 399
CCOC(=O)c1ccc2c(c1)C(Nc1ccc(NS(C)(=O)=O)cc1)CC(C)N2C(C)=O (stereo not shown) [Compound 101, ethyl 1-acetyl-4-[(4-methanesulfonylaminophenyl)amino]-2-methyl-1,2,3,4-tetrahydroquinoline-6-carboxylate] | 508
CC(=O)N1c2ccc(N3CCN(C(=O)c4ccccc4)CC3)cc2C(Nc2ccc(Cl)cc2)CC1C (stereo not shown) [Compound 86, 1-acetyl-6-[(4-benzoyl)piperazino]-2-methyl-4-[(4-chlorophenyl)amino]-1,2,3,4-tetrahydroquinoline] | 237
CC(=O)N1c2ccc(C(=O)O)cc2C(Nc2ccc(F)cc2)CC1C (stereo not shown) [Compound 100, 1-acetyl-4-[(4-fluorophenyl)amino]-2-methyl-1,2,3,4-tetrahydroquinoline-6-carboxylic acid] | 105
CC(=O)N1c2c(Br)cccc2C(Nc2ccccc2)CC1C (stereo not shown) [Compound 63, 1-acetyl-8-bromo-4-phenylamino-2-methyl-1,2,3,4-tetrahydroquinoline] | 98
CC(=O)N1CCN(c2ccc3c(c2)C(Nc2ccc(N4CCOCC4)cc2)CC(C)N3C(C)=O)CC1 (stereo not drawn) [Compound 94, cis-1-acetyl-6-[(4-acetyl)piperazino]-2-methyl-4-[(4-morpholinophenyl)amino]-1,2,3,4-tetrahydroquinoline.3 hydrochloride] | 199
CC(=O)N1c2ccc(C(=O)N3CCOCC3)cc2C(Nc2ccc(Cl)cc2)CC1C (stereo not shown) [Compound 93, 1-acetyl-4-[(4-chlorophenyl)amino]-6-[(1-morpholino)carbonyl]-2-methyl-1,2,3,4-tetrahydroquinoline.hydrochloride] | 245
CCC1CC(Nc2ccccc2)c2ccccc2N1C(C)=O (stereo not shown) [Compound 59, 1-acetyl-2-ethyl-4-phenylamino-1,2,3,4-tetrahydroquinoline] | 108
CC(=O)N1c2ccc(C(N)=O)cc2[C@H](Nc2ccc(CC(N)=O)cc2)C[C@@H]1C (relative stereo) [Compound 106, cis-1-acetyl-4-[(4-carbamoylmethylphenyl)amino]-2-methyl-1,2,3,4-tetrahydroquinoline-6-carboxamide] | 227
CC1CC(Nc2ccc(F)cc2)c2cc(F)ccc2N1C(=O)C1CCCC1 (stereo not shown) [Compound 66, 1-cyclopentanecarbonyl-6-fluoro-2-methyl-4-[(4-fluorophenyl)amino]-1,2,3,4-tetrahydroquinoline] | 151
CC(=O)N1c2ccccc2C(Oc2ccc(N)cc2)CC1C (stereo not shown) [Compound 68, 1-acetyl-4-(4-aminophenoxy)-2-methyl-1,2,3,4-tetrahydroquinoline] | 154
CC(=O)N1CCN(c2ccc3c(c2)C(Nc2ccc(CC(=O)O)cc2)CC(C)N3C(C)=O)CC1 (stereo not shown) [Compound 91, 1-acetyl-6-(4-acetylpiperazinyl)-4-[(4-carboxymethylphenyl)amino]-2-methyl-1,2,3,4-tetrahydroquinoline] | 130
CC(=O)N1c2ccc(F)cc2[C@H](Oc2ccccc2)C[C@@H]1C (relative stereo) [Compound 35, cis-1-acetyl-6-fluoro-2-methyl-4-phenoxy-1,2,3,4-tetrahydroquinoline] | 287
CC(=O)N1c2cc(F)ccc2[C@H](Nc2cccc(F)c2)C[C@@H]1C (relative stereo) [Compound 58, cis-1-acetyl-7-fluoro-4-[(3-fluorophenyl)amino]-2-methyl-1,2,3,4-tetrahydroquinoline] | 107
CC(=O)N1c2cc(F)ccc2[C@H](Oc2ccccc2)C[C@@H]1C (relative stereo) [Compound 32, cis-1-acetyl-7-fluoro-2-methyl-4-phenoxy-1,2,3,4-tetrahydroquinoline] | 145
CC(=O)N1c2c(F)cccc2[C@H](Oc2ccccc2)C[C@@H]1C (relative stereo) [Compound 33, cis-1-acetyl-8-fluoro-2-methyl-4-phenoxy-1,2,3,4-tetrahydroquinoline] | 115
COc1ccc2c(c1)N(C(C)=O)C(C)CC2Nc1ccccc1 (stereo not shown) [Compound 48, 1-acetyl-2-methyl-7-methoxy-4-phenylamino-1,2,3,4-tetrahydroquinoline] | 139
CC(=O)N1c2ccc(N3CCOCC3)cc2C(Nc2ccc(CC(N)=O)cc2)CC1C (stereo not shown) [Compound 90, 1-acetyl-4-[(4-carbamoylmethylphenyl)amino]-2-methyl-6-morpholino-1,2,3,4-tetrahydroquinoline] | 241
CC(=O)N1c2ccc(NS(C)(=O)=O)cc2C(Nc2ccc(N3CCOCC3)cc2)CC1C (stereo not shown) [Compound 98, 1-acetyl-6-methanesulfonylamino-2-methyl-4-[(4-morpholinophenyl)amino]-1,2,3,4-tetrahydroquinoline] | 56
CC(=O)N1c2ccccc2[C@H](Oc2ccc(OCc3ccccc3)cc2)C[C@@H]1C (relative stereo) [Compound 64, cis-1-acetyl-4-(4-benzyloxyphenoxy)-2-methyl-1,2,3,4-tetrahydroquinoline] | 113
CC(=O)N1c2ccc(C(=O)NN)cc2C(Nc2ccc(Cl)cc2)CC1C (stereo not shown) [Compound 115, 1-acetyl-4-[(4-chlorophenyl)amino]-2-methyl-1,2,3,4-tetrahydroquinoline-6-carbohydrazide] | 163
CC(=O)N1CC(C)(C)C(Nc2ccccc2)c2ccccc21 (stereo not drawn) [Compound 60, cis-1-acetyl-3,3-dimethyl-4-phenylamino-1,2,3,4-tetrahydroquinoline] | 113
CC(=O)N1c2ccc(N3CC(C)OC(C)C3)cc2C(Nc2ccc(Cl)cc2)CC1C (stereo not drawn) [Compound 83, 1-acetyl-4-[(4-chlorophenyl)amino]-6-[(cis-3,5-dimethyl)morpholino]-2-methyl-1,2,3,4-tetrahydroquinoline] | 282
